Patent publication US6492339B1, “Compositions comprising D-chiro inositol and sulfonylureas and methods of treatment thereof” (Insmed, Incorporated, priority 2001, dated 2002)
Entries after “also recorded” stand apart in the source; their conditions may differ.

How the values were obtained:
[1] = test system: streptozotocin-treated rats, obese Zucker rats, or normal rats given a glucose load; details: obese Zucker or glucose-loaded normal rats; cited from earlier work
[2] = test system: obese patients with type 2 diabetes mellitus; assay: Randomized, placebo-controlled, double-blind clinical trial of D-chiro-inositol in combination with a sulfonylurea (fasting biomarkers, HbA1c, lipids); type: in vivo, human; details: for difference to placebo in change of mean HbA1c level (%): baseline to endpoint
Method: The objective of this study was to assess the efficacy and safety of D-chiro-inositol when administered as a single oral dose of 1200 mg/day compared to placebo, each in combination with sulfonylureas, for 3 months. Patients were required to have been on sulfonylureas for 3 months prior to study entry without reaching their target dose or with a suboptimal response.
This multicenter, double-blind, parallel-group, placebo-controlled, randomized, fixed-dose clinical study was designed to evaluate 1200 mg/day D-chiro-inositol versus placebo in 270 obese patients with type 2 diabetes mellitus who had been receiving sulfonylureas for at least 3 months without reaching their target or with suboptimal response.
(§1) The study involved 5 scheduled visits. The first visit was the screening visit, followed by a baseline visit up to 2 weeks later. Patients were randomized at the baseline visit, half to 1200 mg/day D-chiro-inositol and half to placebo. and subsequently began 13 weeks of treatment with blinded study medication. There were 3 visits for safety and efficacy assessments, at 4, 8, and 13 weeks after beginning treatment. The 13week visit was the final visit. Patients arrived at the investigational site in a fasted state for all visits. Assessments were to be done at the same time of day at each visit by the same responsible personnel. Medication was taken once a day at the same time of morning, except on visit days, on which the dose was delayed until just after fasting blood samples had been collected.
Patients receiving D-chiro-inositol received four 300 mg capsules once daily for a total daily dose of 1200 mg; placebo patients took 4 placebo capsules once daily. Doses were taken orally, generally in the mornings. Patients were instructed to take their dose in the morning at the same time each day, except on visit days. On visit days, dosing was to be done at the clinic. No instructions were given regarding when to take medication in relation to meals on non-visit days.
(§2) Biomarkers: A meal tolerance test (MTT) was performed at baseline (Visit 2) and the final visit (Visit 5). In addition, blood was drawn at every visit for assessment of fasting glucose and insulin, HbA1c, C-peptide, fructosamine, FFA, triglycerides, total cholesterol, HDL, VLDL, LDL, and Apo-B levels.
Primary Efficacy Variable(s) and Analyses. The primary analysis was based on the change from baseline to endpoint in HbA1c level using the modified ITT and evaluable study populations. The analysis was done using an analysis of covariance (ANCOVA) model with treatment group and the baseline HbA1c value as predictors.
Secondary Efficacy Variable(s) and Analyses. Since all secondary efficacy parameters were continuous, they were analyzed in the same manner as described above for the primary efficacy parameter, with treatment group and baseline values for the relevant parameter used as predictors.

type 2 diabetic patients = assay: Subgroup analysis of lipid lowering drug/D-chiro-inositol effects on LDL cholesterol; type: in vivo, human; details: type 2 diabetic patients on sulfonylurea, with or without lipid lowering medications
Method: Due to the observation of lipid lowering effects seen in the DCI group, the clinical trial described in EXAMPLE 1 was further analyzed for synergistic interactions between D-chiro-inositol and lipid lowering medications. Certain patients within the trial were treated according to standard of care with HMC-CoA inhibitors (LIPITOR®, LESCOL®, ZOCOR®, MEVACOR®, PRAVACHOL®), gemfibrozil, or a combination of HMC-CoA and gemfibrozil. No inclusion or exclusion criteria were established for the efficacy of the lipid lowering drug efficacy in the patient population. As stated supra, these patients were being sub optimally treated with a sulfonylurea prior to beginning the clinical trial.

[3] = test system: obese patients with type 2 diabetes mellitus; assay: Meal tolerance test (MTT) at baseline and final visit of the clinical trial; type: in vivo, human
Method: Changes in area-under-the-curve (AUC) and 120-minute insulin and glucose levels during the meal tolerance test (MTT).
as §1, §2
AUC (and 120-minute) insulin and glucose levels during the MTT;.
FIGS. 1A, 1B and 2 illustrate the observation that D-chiro-inositol (DCI) prolongs pancreatic production of insulin in patients receiving sulfonylurea compounds. […] At baseline, a time when the subjects had been poorly managed on SU compounds alone, both the DCI group and the SU group responded similarly in their ability to produce insulin in response to the meal challenge. […] Without wishing to be bound by theory, the inventors contemplate that this progression is mediated by pancreatic failure and thus reduced insulin secretion. Therefore the amelioration of this effect by administration of DCI benefits the subject by the aforementioned medical improvements, but also will prevent the progression of diabetes by preventing pancreatic failure and/or decreased insulin production.

[4] = test system: obese insulin-resistant rhesus monkeys; details: oral or intravenous route; cited from earlier work
diabetic population = details: in combination with sulfonylurea or insulin; cited from earlier work
[5] = evaluable patients with fasting plasma glucose ≦180 mg/dL, 1200 mg/day oral with sulfonylureas
[6] = evaluable population, 1200 mg/day oral with sulfonylureas, 13 weeks
[7] = patients with fasting plasma glucose ≦180 mg/dL, 1200 mg/day oral with sulfonylureas

Structure (SMILES) | glycemic control [1] | Mean change (in %) in HbA1c levels from baseline to endpoint ([2]; all subjects using LOCF at endpoint, 1200 mg/day oral with sulfonylureas, 13 weeks) | decrease in mean HbA1c level (%) from baseline to endpoint ([2]; evaluable patients with FPG≦180 mg/dL, value printed as size of the decrease) | Apo-B, mean change [2, 5] | difference to placebo in change of mean HbA1c level (%) ([2]; evaluable population) | FFA, mean change at endpoint [2, 6] | decrease in mean HbA1c levels (%) from baseline to endpoint ([2]; evaluable population, value printed as size of the decrease) | difference to placebo in change of mean HbA1c level (%) ([2]; patients with FPG≦180 mg/dL) | Mean change (in %) in HbA1c levels to endpoint ([2]; patients with fasting plasma glucose ≦180 mg/dL, LOCF at endpoint, 1200 mg/day oral with sulfonylureas) | Mean change (in %) in HbA1c levels to Week 4 [2, 7] | Mean change (in %) in HbA1c levels to Week 8 [2, 7] | effect on LDL cholesterol (FIG. 3) (type 2 diabetic patients) | Change in insulin AUC from baseline to final (FIG. 2) ([3]; DCI+SU, scatter diagram of individual subjects, median, listed as DCI) | insulin response after a meal tolerance test, baseline versus final (FIGS. 1A, 1B) ([3]; DCI+SU, subjects with fasting blood glucose ≤180 mg/dl, three month timepoint, listed as DCI) | AUC insulin, mean change [3, 5] | 120-min. insulin, mean change at endpoint [3, 6] | AUC insulin, mean change at endpoint [3, 6] | disappearance rate of plasma glucose and insulin [4] | rate of mild to moderate hypoglycemia (diabetic population)
OC1C(O)C(O)C(O)C(O)C1O [D-chiro-inositol] | significantly improved glycemic control | −0.16% | 0.53% | -4.00 mg/dL | 0.36% | −0.07 mEq/L | 0.16% | 0.80% | −0.53% | −0.47% | −0.57% | significantly reduced the increase of LDL cholesterol | no significant negative scatter; also recorded: slightly increased the insulin AUC | maintained this response after the 13 week course of treatment; also recorded: maintains a constant insulin response over the testing period | 1070.8 μU/mL · hr | 3.50 μU/mL | 484.4 μU/mL · hr | significantly increased the disappearance rate of both plasma glucose and insulin | 
CCc1ccc(CCOc2ccc(CC3SC(=O)NC3=O)cc2)nc1 (stereo not shown) [pioglitazone] |  |  |  |  |  |  |  |  |  |  |  |  |  |  |  |  |  |  | 1-2%
